Measured values reported in ChEMBL document CHEMBL1201862, “PubChem BioAssay data set” (2004).
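Exposure lasted 48 hours, with cells grown in 96-well plates and compounds tested at five concentrations. GI50 = concentration required for 50% inhibition of growth.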 Activity calls are given as the source filed them. Cut-off read from the data, not from the text of the source: active = GI50 up to about 1.1 µM and inactive = higher.

Assays:
Assay in all cases: NCI-60 cell line screen, 48 h
UACC-62 = system: UACC-62
HCC 2998 = system: HCC 2998
MDA-MB-435 = system: MDA-MB-435
SK-MEL-5 = system: SK-MEL-5
MCF7 = system: MCF7
NCI-H460 = system: NCI-H460
OVCAR-5 = system: OVCAR-5
KM12 = system: KM12
TK-10 = system: TK-10
MDA-N = system: MDA-N
EKVX = system: EKVX
786-0 = system: 786-0
SNB-75 = system: SNB-75
NCI-H226 = system: NCI-H226
HT-29 = system: HT-29
NCI-H522 = system: NCI-H522
PC-3 = system: PC-3
OVCAR-8 = system: OVCAR-8
M14 = system: M14
NCI/ADR-RES = system: NCI/ADR-RES

Row | Compound | GI50 (UACC-62) | GI50 (HCC 2998) | GI50 (MDA-MB-435) | GI50 (SK-MEL-5) | GI50 (MCF7) | GI50 (NCI-H460) | GI50 (OVCAR-5) | GI50 (KM12) | GI50 (TK-10) | GI50 (MDA-N) | GI50 (EKVX) | GI50 (786-0) | GI50 (SNB-75) | GI50 (NCI-H226) | GI50 (HT-29) | GI50 (NCI-H522) | GI50 (PC-3) | GI50 (OVCAR-8) | GI50 (M14) | GI50 (NCI/ADR-RES)
1 | O=C(NC1=C(Cl)C(=O)c2ccccc2C1=O)C(=O)c1c(O)c2ccccc2oc1=O | 2.3 µM (inactive) | 8.11 µM (inactive) | 1.39 µM (inactive) | 0.368 µM (active) | 1.62 µM (inactive) | 2.54 µM (inactive) | 11.5 µM (inactive) | 4.55 µM (inactive) | 17.5 µM (inactive) | 1.37 µM (inactive) | 9.42 µM (inactive) | 6.24 µM (inactive) | 5.14 µM (inactive) | 9.18 µM (inactive) | 3.07 µM (inactive) | 3.69 µM (inactive) | 2.88 µM (inactive) | 3.44 µM (inactive) | 1.83 µM (inactive) | 3.13 µM (inactive)
2 | CCCCCCCCCC(=O)OCC1(CO)C/C(=C/CC(C(C)C)C(C)C)C(=O)O1 (stereo not given) | 49.2 µM (inactive) | 39.3 µM (inactive) | 31.6 µM (inactive) | 25.7 µM (inactive) | 59 µM (inactive) | 23.5 µM (inactive) | 64.9 µM (inactive) | 10.2 µM (inactive) | 77.6 µM (inactive) | 87.1 µM (inactive) | 70.1 µM (inactive) | 35.7 µM (inactive) | 78 µM (inactive) | 74.5 µM (inactive) | 31.6 µM (inactive) | 19.4 µM (inactive) | 42.4 µM (inactive) | 47.1 µM (inactive) | 51.2 µM (inactive) | > 100 µM (inactive)
3 | CC1=C(C(=O)OC(C)C)C(c2cccc([N+](=O)[O-])c2)C(C(=O)OC(CO[N+](=O)[O-])CO[N+](=O)[O-])=C(C)N1 (stereo not given) | 2.65 µM (inactive) | 4.53 µM (inactive) | 3.15 µM (inactive) | 1.96 µM (inactive) | 0.61 µM (active) | 3.5 µM (inactive) | 6.71 µM (inactive) | 3.3 µM (inactive) | 8.07 µM (inactive) | 2.83 µM (inactive) | 4.37 µM (inactive) | 3.56 µM (inactive) | 2.66 µM (inactive) | 6.55 µM (inactive) | 3.21 µM (inactive) | 1.85 µM (inactive) | 2.05 µM (inactive) | 3.85 µM (inactive) | 3.56 µM (inactive) | 2.45 µM (inactive)
4 | Cc1ccc(/N=N/c2c(C)nn(C(=O)CC(=O)Nc3ccccc3)c2C)cc1C | > 100 µM (inactive) | > 100 µM (inactive) | > 100 µM (inactive) | > 100 µM (inactive) | > 100 µM (inactive) | > 100 µM (inactive) | > 100 µM (inactive) | > 100 µM (inactive) | > 100 µM (inactive) | > 100 µM (inactive) | 26.2 µM (inactive) | > 100 µM (inactive) | 59.7 µM (inactive) | > 100 µM (inactive) | > 100 µM (inactive) | > 100 µM (inactive) | > 100 µM (inactive) | > 100 µM (inactive) | > 100 µM (inactive) | > 100 µM (inactive)
5 | CC(=O)N(C(C)=O)c1cc2c3c(c1)CCCN3CCC2 | > 10 µM (inactive) | > 10 µM (inactive) | > 10 µM (inactive) | > 10 µM (inactive) | > 10 µM (inactive) | > 10 µM (inactive) | > 10 µM (inactive) | > 10 µM (inactive) | > 10 µM (inactive) | > 10 µM (inactive) | > 10 µM (inactive) | > 10 µM (inactive) | > 10 µM (inactive) | > 10 µM (inactive) | > 10 µM (inactive) | > 10 µM (inactive) | > 10 µM (inactive) | > 10 µM (inactive) | > 10 µM (inactive) | > 10 µM (inactive)
6 | CCOC(=O)C1=C(C)C(C(=O)OC)/C(=C/c2cccc3cccnc23)C1=O (stereo not given) | > 10 µM (inactive) | > 10 µM (inactive) | > 10 µM (inactive) | > 10 µM (inactive) | 4.76 µM (inactive) | > 10 µM (inactive) | > 10 µM (inactive) | > 10 µM (inactive) | > 10 µM (inactive) | > 10 µM (inactive) | > 10 µM (inactive) | > 10 µM (inactive) | > 10 µM (inactive) | > 10 µM (inactive) | > 10 µM (inactive) | > 10 µM (inactive) | > 10 µM (inactive) | > 10 µM (inactive) | > 10 µM (inactive) | > 10 µM (inactive)
7 | O=C(Nc1cc2c(=O)oc3ccccc3c2oc1=O)c1cccnc1 | > 100 µM (inactive) | > 100 µM (inactive) | > 100 µM (inactive) | > 100 µM (inactive) | > 100 µM (inactive) | > 100 µM (inactive) | > 100 µM (inactive) | > 100 µM (inactive) | > 100 µM (inactive) | > 100 µM (inactive) | > 100 µM (inactive) | > 100 µM (inactive) | 62.4 µM (inactive) | > 100 µM (inactive) | > 100 µM (inactive) | > 100 µM (inactive) | > 100 µM (inactive) | 45 µM (inactive) | 79.6 µM (inactive) | > 100 µM (inactive)
8 | O=[N+]([O-])/C=C/c1cc2ccc3ccccc3c2[nH]1 | 1.68 µM (inactive) | 1.92 µM (inactive) | 1.69 µM (inactive) | 1.64 µM (inactive) | 1.44 µM (inactive) | 2.11 µM (inactive) | 2.29 µM (inactive) | 1.83 µM (inactive) | 1.58 µM (inactive) | 1.67 µM (inactive) | 2.76 µM (inactive) | 1.36 µM (inactive) | 1.79 µM (inactive) | 1.06 µM (active) | 2.19 µM (inactive) | 0.851 µM (active) | 1.46 µM (inactive) | 2.28 µM (inactive) | 1.64 µM (inactive) | 2.42 µM (inactive)
9 | COC(=O)CCCC(=O)/C(=N\Nc1ccc(Cl)cc1)Nc1c(Cl)cccc1Cl | 60 µM (inactive) | 58.7 µM (inactive) | 76.7 µM (inactive) | 32.8 µM (inactive) | 53.8 µM (inactive) | 26.7 µM (inactive) | > 100 µM (inactive) | 32 µM (inactive) | > 74.1 µM (inactive) | > 84.5 µM (inactive) | 51.8 µM (inactive) | 86.1 µM (inactive) | 27.5 µM (inactive) | 45.2 µM (inactive) | 56.6 µM (inactive) | 28.4 µM (inactive) | 24 µM (inactive) | > 100 µM (inactive) | > 92.5 µM (inactive) | > 74.1 µM (inactive)
10 | COC(=O)C1=C(C(=O)OC)SC(=C2SCSC3=C2SC(C(=O)OC)=C(C(=O)OC)C32SC3=C(CCCC3)S2)S1 | > 100 µM (inactive) | > 100 µM (inactive) | > 100 µM (inactive) | > 100 µM (inactive) | > 100 µM (inactive) | > 100 µM (inactive) | > 100 µM (inactive) | > 100 µM (inactive) | 32.4 µM (inactive) | > 100 µM (inactive) | > 100 µM (inactive) | 74.1 µM (inactive) | 13.9 µM (inactive) | > 100 µM (inactive) | > 100 µM (inactive) | > 100 µM (inactive) | > 100 µM (inactive) | > 100 µM (inactive) | > 100 µM (inactive) | > 100 µM (inactive)
11 | CN(NC(=O)CCCl)C1=NCCN1 | > 100 µM (inactive) | > 100 µM (inactive) | > 100 µM (inactive) | > 100 µM (inactive) | > 100 µM (inactive) | > 100 µM (inactive) | > 100 µM (inactive) | > 100 µM (inactive) | > 100 µM (inactive) | > 100 µM (inactive) | > 100 µM (inactive) | > 100 µM (inactive) | > 100 µM (inactive) | > 100 µM (inactive) | > 100 µM (inactive) | > 100 µM (inactive) | > 100 µM (inactive) | > 100 µM (inactive) | > 100 µM (inactive) | > 100 µM (inactive)
12 | OCC1OC(n2cnc3c(Cl)nc(Nc4ccccc4)nc32)CC1O (stereo not given) | 40.5 µM (inactive) | 17.8 µM (inactive) | 60.1 µM (inactive) | > 100 µM (inactive) | > 100 µM (inactive) | 49.9 µM (inactive) | > 100 µM (inactive) | > 100 µM (inactive) | > 100 µM (inactive) | 75.5 µM (inactive) | 2.94 µM (inactive) | > 100 µM (inactive) | 42.6 µM (inactive) | > 100 µM (inactive) | > 100 µM (inactive) | 5.2 µM (inactive) | > 100 µM (inactive) | > 100 µM (inactive) | 60.1 µM (inactive) | > 100 µM (inactive)
13 | O=S1(=O)c2ccccc2N2C(c3ccccc3)=NOC2(c2ccccc2)CC1c1ccc(Br)cc1 (stereo not given) | > 100 µM (inactive) | > 100 µM (inactive) | > 100 µM (inactive) | > 100 µM (inactive) | > 100 µM (inactive) | > 100 µM (inactive) | > 100 µM (inactive) | > 100 µM (inactive) | > 100 µM (inactive) | > 100 µM (inactive) | > 100 µM (inactive) | > 100 µM (inactive) | > 100 µM (inactive) | > 100 µM (inactive) | > 100 µM (inactive) | > 100 µM (inactive) | > 100 µM (inactive) | > 100 µM (inactive) | 95.7 µM (inactive) | > 100 µM (inactive)
14 | CSc1[nH]nc(N)c1C(=O)Nc1ccccc1 | > 100 µM (inactive) | > 100 µM (inactive) | > 100 µM (inactive) | > 100 µM (inactive) | > 100 µM (inactive) | > 100 µM (inactive) | > 100 µM (inactive) | > 100 µM (inactive) | > 100 µM (inactive) | > 100 µM (inactive) | > 100 µM (inactive) | > 100 µM (inactive) | > 100 µM (inactive) | > 100 µM (inactive) | > 100 µM (inactive) | 52.4 µM (inactive) | > 100 µM (inactive) | > 100 µM (inactive) | > 100 µM (inactive) | > 100 µM (inactive)
